Test results from PMC10852989, “Combining cisplatin and a STING agonist into one molecule for metalloimmunotherapy of cancer” (National Science Review, 2024).

System: BMDCs cultured with Pan02 cell CM
Test: IFN-β ELISA of BMDCs incubated with conditioned medium of drug-treated Pan02 cells
Type: cell-based, mouse
Description: ELISA. Bone marrow-derived dendritic cells (BMDCs) were prepared according to the following method. Briefly, femurs and tibias were removed from 4-6 week-old C57BL/6 mice, and the bone marrow cells were isolated. The bone marrow cells were incubated in T cell medium [RPMI-1640 medium (with GlutaMAX), supplemented with 10% FBS, 1% HEPES, 1% NEAA, 1% sodium pyruvate, and 0.1% βME] containing 20 ng/mL GM-CSF for 6 days after erythrocyte lysis, during which time half of the medium was replaced with fresh T cell medium once and the cytokines were supplemented. Then, the BMDCs were harvested on day 7 for further study.
Pan02 tumor cells were treated with various drugs at a concentration of 5 μM for 48 h, and then the drug-pretreated tumor cell supernatant was obtained by centrifugation at a speed of 12000 rpm/min for 5 min and used as conditioned media (CM) subsequently.
BMDCs were cultured with 50% CM plus 50% fresh medium for 18 h. In addition, BMDCs were cultured with fresh medium containing different complexes or mixtures (15 μM CDDP and I, a mixture of I and 8 equiv. AsA, and equal AsA). Then, all the BMDC supernatant was collected and centrifuged for subsequent cytokine analysis using ELISA kits, which were performed according to the manufacturer’s instructions.

In the case of COc1cc2cc(C(=O)CCC(=O)[O][Pt]([NH2])([NH2])([OH])([Cl])[Cl])sc2cc1OC [conjugate I], the “IFN-β secretion by BMDCs pretreated with MyD88 inhibitor, treated Pan02 cell CM” value (MyD88 inhibitor TJ-M2010-5) is reported as “significant decrease” and the “IFN-β secretion by BMDCs incubated with treated Pan02 cell CM” value (Pan02 treated 48 h at 5 μM (Pt-E-I 20 μM), BMDCs 50% CM, 18 h) is reported as “markedly increased”.
